Experiments:
[1] = Naive panelist evaluation of malodor reduction at mid-intensity dosages, passive evaporation in jars, against 4MOA; set-up: species or system human; conditions: MO 4MOA dosage 7.5%, test compound dosage 1.5% in DiPG on cellulose pads; jar equilibrated 4 hours at room temperature; N 26 panelists
Experimental: The performance of fragrancing products was evaluated by non-expert consumers under passive evaporation conditions. This was achieved by: 1) selecting target axillary malodor components, 2) delivering target malodor components and candidate malodor reducing materials (separately) to the noses of naïve panelists at a range of dosages established under passive evaporation conditions 3) having the panelists evaluate the overall intensity of each presented sample, 4) determining the average mid-intensity concentration for both the malodors and malodor reducing candidates of interest, 5) delivering samples containing a malodor component and a malodor reducing candidate of interest mixed together at the dosages determined in step 4, along with separate control samples containing either alone or neither, to the noses of panelists, 6) having panelists evaluate the malodor intensity for each presented sample, and 7) determining the degree of malodor reduction produced by the candidate malodor reducing material by comparing the malodor intensity ratings of the mixture to those of the control samples. […]

[2] = Expert perfumer evaluation of malodor reduction, dynamic olfactometer, against 3M2HA; set-up: species or system human; conditions: for EFFECTIVE CONCENTRATION: MO 3M2HA held fixed at mid-intensity (0.5), headspace concentration providing an effective level; for EXPERT RATING: MO 3M2HA held fixed at mid-intensity (0.5 on scale 0-1), rating of degree of malodor reduction at the effective concentration
Experimental: (§1) The effectiveness of perfuming materials in compositions to reduce the perception of, for example, axillary sweat malodors, was evaluated by an expert perfumer by 1) selecting target axillary malodor components, 2) delivering target malodor components and candidate malodor reducing materials to the nose of an expert perfumer at carefully controlled concentrations, 3) having the expert perfumer identify the concentration at which malodor reduction was obtained, and 4) rating the degree of reduction achieved at the concentration identified in step 3.
(§2) In this method, a dynamic multi-channel olfactometer was used to precisely deliver known gas phase concentrations of the test materials, using forced evaporation, into a stream of air emanating from a smelling port. The appropriate concentration of the malodor component was established prior to its being mixed with the candidate malodor reducing substance. The concentration was set at a concentration sufficient to produce an intensity of 0.5 (mid-intensity) on a scale of 0-1. The expert perfumer then dynamically adjusted the concentration of the candidate malodor reducing substance to determine the effective concentration, while maintaining a fixed concentration of the malodor component. Once the appropriate concentration had been determined, the expert perfumer evaluated the perception of the mixtures repeatedly over a period of several minutes, taking breaks in between sniffs to avoid adaptation to the components being tested, before providing a rating.
(§3) Tests were performed in a forced-evaporation, dynamic olfactometer, with malodor component concentrations held fixed at a mid-intensity. Ratings of effectiveness were based in the following scale: −2 (significant increase in malodor), −1 (slight increase in malodor), 0 (no effect), 1 (slight malodor reduction), 2 (good malodor reduction), 3 (complete malodor reduction). The malodor (MO) component abbreviations are 3H3MHA (3-methyl-3-hydroxyhexanoic acid), 3M2HA (3-methyl-2-hexenoic acid), 3M3SH (3-methyl-3-sulphanylhexanol).

[3] = Expert perfumer evaluation of malodor reduction, dynamic olfactometer, against 3H3MHA; set-up: species or system human; key to EXPERT RATING: −2: significant increase in malodor; −1: slight increase in malodor; 0: no effect; 1: slight malodor reduction; 2: good malodor reduction; 3: complete malodor reduction; conditions: for EFFECTIVE CONCENTRATION: MO 3H3MHA held fixed at mid-intensity (0.5), headspace concentration providing an effective level; for EXPERT RATING: MO 3H3MHA held fixed at mid-intensity (0.5 on scale 0-1), rating of degree of malodor reduction at the effective concentration
Experimental: The effectiveness of perfuming materials in compositions to reduce the perception of, for example, axillary sweat malodors, was evaluated by an expert perfumer by 1) selecting target axillary malodor components, 2) delivering target malodor components and candidate malodor reducing materials to the nose of an expert perfumer at carefully controlled concentrations, 3) having the expert perfumer identify the concentration at which malodor reduction was obtained, and 4) rating the degree of reduction achieved at the concentration identified in step 3. […] Two surprising results were be observed. The first is that not all tested materials yielded complete malodor reduction, often differing depending on which component they were tested against. […] Intensity and concentration were material-dependent and spanned a wide range of values on both axes. […] Thus, neither the required concentrations, nor performance ratings could be predicted a priori by one skilled in the art, yet are necessary and sufficient for designing malodor reducing compositions for use in perfuming products.
as §2, §3

[4] = Expert perfumer evaluation of malodor reduction, dynamic olfactometer, against 3M3SH; set-up: species or system human; conditions: for EFFECTIVE CONCENTRATION: MO 3M3SH held fixed at mid-intensity (0.5), headspace concentration providing an effective level; for EXPERT RATING: MO 3M3SH held fixed at mid-intensity (0.5 on scale 0-1), rating of degree of malodor reduction at the effective concentration
Experimental: as §1, §2, §3

CCOC(=O)C12CCCC1C1CCC2C1 (stereo not drawn) [ethyl tricyclo[5.2.1.0.(2,6)]decane-2-carboxylate]
Reduction (%) [1]: 43% | EFFECTIVE CONCENTRATION [2]: 1.07E−01 micrograms/L AIR | EXPERT RATING [2]: 3

C/C=C/c1ccc(OCC)c(O)c1 [(E)-2-ETHOXY-5-(1-PROPENYL)PHENOL]
EFFECTIVE CONCENTRATION [3]: 4.50E−03 micrograms/L AIR | EXPERT RATING [3]: 3 | EFFECTIVE CONCENTRATION [4]: 4.50E−02 micrograms/L AIR | EXPERT RATING [4]: 3 | EFFECTIVE CONCENTRATION [2]: 1.80E−02 micrograms/L AIR | EXPERT RATING [2]: 3

Cc1ccc2c(c1)CC(C)(CO)C2 (racemic)
EFFECTIVE CONCENTRATION [3]: 3.13E−02 micrograms/L AIR | EXPERT RATING [3]: 3 | EFFECTIVE CONCENTRATION [4]: 7.83E−02 micrograms/L AIR | EXPERT RATING [4]: 3 | EFFECTIVE CONCENTRATION [2]: 4.70E−02 micrograms/L AIR | EXPERT RATING [2]: 3

CC/C=C\CC/C=C/C=O [(2E,6Z)-2,6-NONADIENAL]
EFFECTIVE CONCENTRATION [3]: 1.13E−03 micrograms/L AIR | EXPERT RATING [3]: 3 | EFFECTIVE CONCENTRATION [4]: 5.67E−04 micrograms/L AIR | EXPERT RATING [4]: 3 | EFFECTIVE CONCENTRATION [2]: 2.83E−03 micrograms/L AIR | EXPERT RATING [2]: 3

CCOC(=O)[C@@H]1[C@@H](C(C)C)[C@@H]2C=C[C@H]1C2 (racemic) [ETHYL 1RS,2SR,3SR,4SR-3-ISOPROPYLBICYCLO[2.2.1]HEPT-5-ENE-2-CARBOXYLATE]
EFFECTIVE CONCENTRATION [3]: 1.03E+00 micrograms/L AIR | EXPERT RATING [3]: 3 | EFFECTIVE CONCENTRATION [4]: 2.07E+01 micrograms/L AIR | EXPERT RATING [4]: 3 | EFFECTIVE CONCENTRATION [2]: 2.58E+00 micrograms/L AIR | EXPERT RATING [2]: 2
